Measurements published in patent US8217028B2, “1,2,4-oxadiazole indole compounds” (Glaxo Group Limited, priority 2008, dated 2012).

Target: T1, human S1P1 receptor (EDG1) (Homo sapiens, UniProt P21453)
T1 construct: expressed in transfected cells; host or cells: rat hepatoma cells (membranes, GTPγS assay) or Tango GPCR-bla U2OS cells (Tango assay)
Assay: S1P1 GTPγS assay or S1P1 Tango assay (at least one of the above assays)
Format: cell-based
Settings: in at least one of the S1P1 GTPγS and S1P1 Tango assays
Procedure: For membrane preparations all steps were performed at 4° C. Rat hepatoma cells stably expressing the human S1P1 receptor or Rat Basophilic Leukaemia cells (RBL) stably expressing human S1P3 receptor were grown to 80% confluency before being harvested into 10 ml Phospho-Buffered Saline (PBS) and centrifuged at 1200 rpm for 5 minutes. After removal of the supernatant, the pellet was re-suspended and cells were homogenised within a glass Warning blender for 2 bursts of 15 secs in 200 mls of buffer (50 mM HEPES, 1 mM leupeptin, 25 μg/ml bacitracin, 1 mM EDTA, 1 mM PMSF, 2 μM pepstatin A). The blender was plunged into ice for 5 mins after the first burst and 10-40 mins after the final burst to allow foam to dissipate. The material was then spun at 500 g for 20 mins and the supernatant spun for 36 mins at 48,000 g. The pellet was resuspended in the same buffer as above but without PMSF and pepstatin A. The material was then forced through a 0.6 mm needle, made up to the required volume, (usually ×4 the volume of the original cell pellet), aliquoted and stored frozen at −80° C.
Human S1P1 rat hepatoma membranes (1.5 μg/well) were adhered to a wheatgerm agglutinin (WGA)-coated scintillation proximity assay (SPA) beads (0.125 mg/well) in assay buffer (HEPES 20 mM, MgCl2 10 mM, NaCl 100 mM and pH adjusted to 7.4 using KOH 5M, GDP 10 μM FAC (final assay concentration) and saponin 90 μg/ml FAC was also added).
After 30 minutes pre-coupling on ice the bead and membrane suspension was dispensed into a white Greiner polypropylene LV384-well plate (5 μl/well), containing 0.1 μl of the compound. 5 μl/well [^35S]-GTPγS (0.5 nM final radioligand conc) made up in assay buffer was then added to agonist plates. The final assay cocktail (10.1 μl) was then centrifuged at 1000 rpm for 5 minutes then read immediately on a Viewlux reader.
All test compounds were dissolved in DMSO at a concentration of 10 mM and were prepared in 100% DMSO using a 1 in 4 dilution step to provide 11 point dose response curves. The dilutions were transferred to the assay plates ensuring that the DMSO concentration was constant across the plate for all assays. All data was normalized to the mean of 16 high and 16 low control wells on each plate. A four parameter curve fit was then applied.
Recombinant EDG1-bla/U2OS cells (contain the human Endothelial Differentiation Gene 1 (EDG1) linked to a TEV protease site and a Ga14-VP16 transcription factor stably integrated into the Tango GPCR-bla U2OS parental cell line) were suspended in assay medium (Invitrogen Freestyle Expression Medium) at a density of 312, 500 cells/ml. Add 100 μl/well of the assay medium to the cell-free control wells (column 12) and 100 μl/well of the cell suspension to the test compound wells (row 2-8, column 1-10), the unstimulated control wells (DMSO) (column 11), and stimulated control wells (S1P) (row 1, column 1-10) in a Corning black-well, clear bottom 96-well plate. Cells were incubated at 37° C., 5% CO2 for 44-48 h. […]
After incubation at 37° C., 5% CO2 for 5 h, 25 μl of 6× substrate mixture (6 μl Solution A (1 mg LiveBLAzer™-FRET B/G substrate (CCF4-AM) in 912 μl DMSO) plus 60 μl Solution B plus 934 μl Solution C) was added to each well and incubate at room temperature for 2 h in dark. The plate was finally read on EnVision for two emission channels (460 nm and 530 nm). […]

T1 sequence (P21453 whole entry): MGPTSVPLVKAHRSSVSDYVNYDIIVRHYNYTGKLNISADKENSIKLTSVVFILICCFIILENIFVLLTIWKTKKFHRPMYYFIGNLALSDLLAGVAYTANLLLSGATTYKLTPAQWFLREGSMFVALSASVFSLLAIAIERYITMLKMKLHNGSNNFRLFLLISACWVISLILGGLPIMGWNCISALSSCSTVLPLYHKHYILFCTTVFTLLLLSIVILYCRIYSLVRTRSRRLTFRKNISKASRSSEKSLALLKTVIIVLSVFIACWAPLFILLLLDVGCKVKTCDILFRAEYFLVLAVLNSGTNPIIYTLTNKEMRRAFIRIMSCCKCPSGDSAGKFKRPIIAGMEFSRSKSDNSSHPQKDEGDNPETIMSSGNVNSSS

EC50 | Structure (SMILES)
< 10 µM | CC(C)Oc1ccc(-c2nc(-c3ccc4[nH]c(C(=O)O)cc4c3)no2)cc1Cl [Example 8, Sodium 5-(5-{3-chloro-4-[(1-methylethyl)oxy]phenyl}-1,2,4-oxadiazol-3-yl)-1H-indole-2-carboxylate]
< 10 µM | CCCCn1cc(CCC(=O)O)c2cccc(-c3noc(-c4ccc(OC(C)C)c(Cl)c4)n3)c21 [Example 29, 3-[1-butyl-7-(5-{3-chloro-4-[(1-methylethyl)oxy]phenyl}-1,2,4-oxadiazol-3-yl)-1H-indol-3-yl]propanoic acid]
< 10 µM | CC(C)Cn1cc(CCC(=O)O)c2cccc(-c3noc(-c4ccc(OC(C)C)c(Cl)c4)n3)c21 [Example 30, 3-[7-(5-{3-chloro-4-[(1-methylethyl)oxy]phenyl}-1,2,4-oxadiazol-3-yl)-1-(2-methylpropyl)-1H-indol-3-yl]propanoic acid]
< 10 µM | COc1ccc(-c2nc(-c3cccc4c(CCC(=O)O)cn(C)c34)no2)cc1OC [Example 44, 3-(7-{5-[3,4-bis(methyloxy)phenyl]-1,2,4-oxadiazol-3-yl}-1-methyl-1H-indol-3-yl)propanoic acid]
< 10 µM | CC(C)Oc1ncc(-c2nc(-c3ccc4c(CN5CCC(C(=O)O)CC5)c[nH]c4c3)no2)cc1Cl [Example 78, 1-{[6-(5-{5-chloro-6-[(1-methylethyl)oxy]-3-pyridinyl}-1,2,4-oxadiazol-3-yl)-1H-indol-3-yl]methyl}-4-piperidinecarboxylic acid]
